Results from patent US20240024494A1, “SMALL-MOLECULE CONJUGATE AND USE THEREOF” (SHANGHAI MEWSGEN BIOTECHNOLOGY CO., LTD, priority 2020, published 2024).

Tested on: MGC803 (human gastric cancer cells)
Test: Tumor cell proliferation inhibition test, CCK-8 method (Example 21)
Format: cell-based
Conditions: Homo sapiens, MGC-803; CCK-8, 72 h, Table 3; read-out: IC50 MGC803
Protocol: A part of the compounds prepared in the examples of the present disclosure were subjected to a tumor cell proliferation inhibition test by using a CCK-8 method. Cell lines HCT116 (human colon cancer cells), MGC803 (human gastric cancer cells), and MIA PACA-2 (human pancreatic cancer cells) were purchased from Shanghai Meixuan Technology Co., Ltd. Samples (a part of the compounds prepared in the examples) were dissolved in DMSO (Merck), prepared into a concentration of 10 mM, and finally triply diluted in DMEM or McCoy's 5A 1640 medium to 8 concentration gradients. A cell culture solution was collected when a cell culture met a test requirement, 10 μL of the cell culture solution was uniformly coated on a cell counting plate, cells were counted for 3 times under a microscope, and a cell density was calculated by taking an average value; and a 96-well plate (Corning, #3599) was taken, 200 μL of the cell culture solution was added into each well for cell inoculation at a cell concentration of 6×10^3 cells per well, and the inoculated 96-well plate was incubated in a cell incubator containing 5% CO2 at 37° C. for 24 h. An old culture medium was removed by suction, 200 μL of the triply diluted sample DMEM or McCoy's 5A 1640 medium at an initial concentration of 10 μmol/L was added to each well, the DMSO content was controlled to be 1%, three duplicate wells were set, PBS was used as a blank control, and the plate was incubated in the incubator for 72 h. The original DMEM or McCoy's 5A 1640 medium in the 96-well plate and a PBS buffer in a final row were sucked out, a prepared CCK-8 solution (90% DMEM or McCoy's 5A 1640 medium+10% CCK-8) was added, the mixture was incubated in an incubator, and an absorbance was read by using a Biotek microplate reader. Cell growth inhibition rate IC %=(blank control well OD value−administration well OD value)/blank control well OD value×100%.

## COc1cc(C(=O)O)ccc1NC(=O)[C@@H]1N[C@@H](CC(C)(C)C)[C@](C#N)(c2ccc(Cl)cc2F)[C@H]1c1cccc(Cl)c1F [Idasanutlin, reference compound]
  IC50: 1090 nM
